Results on 12 compounds are retold here after patent publication US5648359A, “Tumor necrosis factor production inhibitors” (Sumitomo Pharmaceuticals Company, Limited, priority 1993, dated 1997).

Experiment [1] deals with TNF production or secretion in mouse peritoneal macrophages. In words: Inhibitory effect on TNF production or secretion in mouse peritoneal macrophages (30 μM). The format is cell-based, mouse (BALB/c). To be noted: 30 μM compound, LPS 10 μg/ml, 18 hours, TNF by L929 bioassay; for inhibition at 30 µM: Mus musculus. The method, then: Inhibitory effect on TNF production or secretion in mouse peritoneal macrophages (In case drug concentration is 30 μM)
(§1) BALB/c mice (5 weeks old, female, Charles River Japan) were intraperitoneally injected with 1 ml of 3% thioglycollate broth. After 4 days, the mice were sacrificed. Peritoneal exudated cells (PECs) were collected from the peritoneal cavity by washing with minimum essential medium (hereinafter abbreviated as MEM, manufactured by Handai Biseibutubyo Kenkyukai, Osaka, Japan) containing 5 U/ml heparin and 1% fetal bovine serum (FBS, manufactured by GIBCO Laboratories Inc.). PECs were washed three times with MEM, suspended with MEM containing 10% FBS. After the viable cells were counted by exclusion of trypan blue dye, the suspension was adjusted at the final concentration of 2×10^6 cells/ml with MEM containing 10% FBS and seeded into a 96-well microplate (Costar, Cambridge, Mass., USA) at 2×10^5 cells/100 μl/well. The PECs were incubated for an hour at 37° C. in a humidified 5% CO2 incubator, and were washed twice with MEM warmed at 37° C. to remove non-adherent cells. Residual adherent cells were used as peritoneal macrophages. After the washing above, 50 μl each/well of MEM containing 10% FBS was added to each well and provided for use in the following experiment.
The powdery compound of the present invention was dissolved in dimethylsulfoxide in a concentration of 30 mM. The solution was then diluted with MEM containing 10% FBS in the final concentration of 30 μM. In the peritoneal macrophages obtained above, 50 μl each of the dilution was added to each well to make the total volume 100 μl. Thereafter 100 μl each of lipopolysaccharide (hereinafter abbreviated as LPS, E. coli 0111B4, manufactured by DIFCO, USA) was added to each well in the final concentration of 10 μg/ml. After the cells were incubated at 37° C. for 18 hours in a humidified 5% CO2 incubator, 25 μl of the supernatant in each well was collected.
(§2) The TNF activity in the supernatant collected was determined by bioassay using TNF-sensitive mouse fibroblast cell line L929 cells. That is, 100 μl each of MEM containing 10% FBS was added to each well of a 96-well microplate; using the resulting mixture, 25 μl of the collected supernatant was diluted to 5-fold dilution to final concentrations (concentrations after the following addition of L929 cell suspension) of 10%, 2%, 0.4% and 0.08%.
(§3) L929 cells were then suspended (4×10^5 cells/ml) in MEM containing 10% FBS and 1 μg/ml actinomycin D (Sigma Co.) and 100 μl each of the suspension was added to each well of the above microplate at 4×10^4 cells/well and cultured at 37° C. in a humidified 50% CO2. The viable cells were counted by partial modification of the MTT method reported in Monosann et al., T., J. Immunol. Method, 65, 55-63, 1983. The modified MTT method comprises the following steps. One mg/ml of 3-(4,5-dimethylthiazol-2-yl)-2,5-diphenyltetrazolium bromide (hereinafter abbreviated as MTT, manufactured by Sigma Co.) was dissolved in MEM, and 50 μl each of the solution was added to each well of the microplate above. After incubating the microplate for further 6 hours, the supernatant was discarded and 100 μl of 0.004N HCl-isopropyl alcohol and then 10 μl of 0.01% sodium laurylsulfate aqueous solution was added to each well. After shaking the 96-well microplate for a few minutes, the absorbance in each well was measured with a microplate reader (Corona Co.) at an absorption wavelength of 550 nm. The absorbance correlated to the count of the viable L929 cells and represented the TNF activity in the supernatant. The TNF activity was determined in terms of unit (U)/ml from the calibration curve of absorbance for the TNF activity obtained using mouse recombinant TNF α (TNF-M, manufactured by Genzyme Co.) as a standard. The activity of inhibiting TNF production of each compound, was determined by the following equation.
Inhibition of TNF production or secretion (%)=(1-TNF activity in the […]

Experiment [2] relates to TNF production in mouse peritoneal macrophages. In words: Inhibitory effect on TNF production in mouse peritoneal macrophages (50 μM and 100 μM). Type of experiment: cell-based, mouse (BALB/c). To be noted: Peritoneal macrophage, read-out: Inhibition of TNF Production or secretion; for inhibition at 100 µM: 100 μM compound; for inhibition at 50 µM: 50 μM compound. The procedure:
as §1
The powdery compound of the present invention was dissolved in dimethylsulfoxide in a concentration of 30 mM. […] In the peritoneal macrophages obtained above, 50 μl each of the dilution was added to each well to make the total volume 100 μl. Thereafter 100 μl each of lipopolysaccharide (hereinafter abbreviated as LPS, E. coli 0111B4, manufactured by DIFCO, USA) was added to each well in the final concentration of 10 μg/ml. After the cells were incubated at 37° C. for 18 hours in a humidified 5% CO2 incubator, 25 μl of the supernatant in each well was collected.
as §2
as §3, with “After incubating the microplate for further 6 hours, the supernatant was discarded and 100 μl of 0.004N HCl-isopropyl alcohol and then 10 μl of 0.01% sodium laurylsulfate aqueous solution was added to each well.” left out, “equation. […]” for “equation.”

The subject of a further experiment is TNF. To be noted: cited from earlier work.
A further experiment concerns endotoxin-shocked mice. To be noted: mouse, in vivo; cited from earlier work.
The test system of another experiment is cancer patients. To be noted: human, in vivo; cited from earlier work.
Experiment [3] deals with experimental allergic encephalomyelitis induced on an animal model. To be noted: cited from earlier work.
A further experiment concerns HIV-1. To be noted: cited from earlier work.

On to `CCCCCC(=O)N1C2Cc3cc4c(cc3C1Cc1cc3c(cc12)OCO3)OCO4` [Example 19], for which the inhibition at 30 µM in experiment [1] was 16%. The inhibition at 100 µM in experiment [2] worked out at 51%.
`CCCN1C2Cc3cc4c(cc3C1Cc1cc3c(cc12)OCO3)OCO4` [Example 29]: the inhibition at 30 µM in experiment [1] stood at 31%. Moreover, the inhibition at 100 µM in experiment [2] is 81%.
On to `CCCCN1C2Cc3cc4c(cc3C1Cc1cc3c(cc12)OCO3)OCO4` [Example 30], for which the inhibition at 30 µM in experiment [1] was -37%. In addition, in experiment [2], the inhibition at 50 µM was 41% and the inhibition at 100 µM came out at 78%.
Take `NCCCN1C2Cc3cc4c(cc3C1Cc1cc3c(cc12)OCO3)OCO4` [Example 49, 15-(3-aminopropyl)-5,6,12,13-tetrahydrocycloocta[1,2-f:5,6-f']bis[1,S]benzodioxol-5,12-imine]: in experiment [1], the inhibition at 30 µM was -4%. Moreover, the inhibition at 50 µM in experiment [2] was 21%.
For `NCC(=O)N1C2Cc3cc4c(cc3C1Cc1cc3c(cc12)OCO3)OCO4` [Example 52, 15-glycyl-5,6,12,13-tetrahydrocycloocta[1,2-f:5,6-f']bis[1,3]benzodioxol-5,12-imine], the inhibition at 30 µM in experiment [1] stood at 20%.
On the same count and under the same terms, next, `NCCC(=O)N1C2Cc3cc4c(cc3C1Cc1cc3c(cc12)OCO3)OCO4` [Example 53, 15-(3-aminopropionyl)-5,6,12,13-tetrahydrocycloocta[1,2-f:5,6-f']bis[1,3]benzodioxol-5,12-imine]: -1%; `NCCCC(=O)N1C2Cc3cc4c(cc3C1Cc1cc3c(cc12)OCO3)OCO4` [Example 54, 15-(4-aminobutyryl)-5,6,12,13-tetrahydrocycloocta[1,2-f:5,6-f']bis[1,3]benzodioxol-5,12-imine]: 35%.
Turning to `CC(=O)CCCCn1c(=O)c2c(ncn2C)n(C)c1=O` [Pentoxifylline], the TNF inhibitory activity entry in the experiment on TNF was “showing an activity of inhibiting TNF”. Moreover, the “prevention of death in endotoxin-shocked mice” value in the experiment on endotoxin-shocked mice is given as “activity of preventing death in endotoxin-shocked mice”. Besides, in the experiment on cancer patients, the “sense of well-being / weight loss in cancer patients” value is “activity of improving the sense of well-being or preventing a weight loss in cancer patients”. Also, the “prevention of experimental allergic encephalomyelitis” value in experiment [3] is given as “activity of preventing experimental allergic encephalomyelitis induced on an animal model”. The “prevention of HIV-1 replication” value with HIV-1 is recorded as “activity of preventing HIV-1 replication”.
Take “isomeric mixture of 16-acetyl-2-aminomethyl-6,7,13,14-tetrahydro-[1,3]benzodioxolo[5,6-f]cycloocta[1,2-g]-1,4-benzodioxan-6,13-imine and 16-acetyl-3-aminomethyl-6,7,13,14-tetrahydro-[1,3]benzodioxolo[5,6-f]cycloocta[1,2-g]-1,4-benzodioxan-6,13-imine [Example 9]”: in experiment [1], the “Inhibition of TNF Production or Secretion” value came out at 69%.
Still for that read-out and setting: next, “mixture of 16-acetyl-6,7,13,14-tetrahydro-2-hydroxymethyl[1,3]benzodioxolo[5,6-f]cycloocta[1,2-g]-1,4-benzodioxan-6,13-imine and 16-acetyl-6,7,13,14-tetrahydro-3-hydroxymethyl[1,3]benzodioxolo[5,6-f]cycloocta[1,2-g]-1,4-benzodioxan-6,13-imine [Example 8]”: 86%; “mixture of 17-acetyl-2-ethoxycarbonyl-6,7,14,15-tetrahydrocycloocta-[1,2-g:5,6-g']bis[1,4]-benzodioxan-6,14-imine and 17-acetyl-3-ethoxycarbonyl-6,7,14,15-tetrahydrocycloocta[1,2-g:5,6-g']bis[1,4]benzodioxan-6,14-imine [Example 6]”: 89%.
Still for that read-out and setting: next, “mixture of 17-acetyl-6,7,14,15-tetrahydro-2-hydroxymethylcycloocta[1,2-g:5,6-g']bis[1,4]benzodioxan-6,14-imine and 17-acetyl-6,7,14,15-tetrahydro-3-hydroxymethylcycloocta[1,2-g: 5,6-g']bis[1,4]benzodioxan-6,14-imine [Example 7]”: 65%.

One may read the inhibition as the change of the read-out against control, counted positive when it falls.
